Laboratory results: patent US10968214B2, “KRas G12C inhibitors” (Eli Lilly and Company, priority 2018, dated 2021)
Read-outs that look alike come from different tables or passages of the source.

Tests used:
H23 = assay: CellTiterGlo Cell Proliferation Assay, H23; format: cell-based; conditions: Homo sapiens, NCI-H23, KRas G12C, Lung, 96 hr
Description: (§1) A panel of tumor cell lines harboring KRas G12C or other KRas mutations are collected (Table 6). All cell lines are from ATCC or other sources indicated.
(§2) Typically cells are cultured in RPMI1640 or Dulbecco's modified Eagle's medium (DMEM, GIBCO) supplemented with 10% FBS (GIBCO, Invitrogen). For 2D culture cells (4×10^3/well) maintained in growth medium described above, are plated onto 96 well tissue culture plates Corning® Cat. 3603) a day before the treatment. For 3D culture 8000 cells/well are seeded onto 96 well ultra-low attachment tissue culture plates (Corning, #3474). The cells are treated compound for 96 hr, and then are analyzed for viability using the CellTiterGlo® Luminescent Cell Viability Assay® (Promega #G7572 for 2D and Promega #G9683 for 3D cultures) according to manufacturer's instructions and an EnVision™ plate reader. Nonlinear regression and sigmoidal dose-response curves are used to calculate the half maximal inhibitory concentration (IC50) with GraphPad Prism 4® software.

H1373 = assay: CellTiterGlo Cell Proliferation Assay, H1373; format: cell-based; conditions: Homo sapiens, NCI-H1373, KRas G12C, Lung, 96 hr
Description: as §1, §2

H460 = assay: CellTiterGlo Cell Proliferation Assay, H460; format: cell-based; conditions: Homo sapiens, NCI-H460, KRas Q61H, lung, 96 hr
Description: as §1, §2

[1] = target: T1, active KRas in H2122 xenograft tumors (Homo sapiens, UniProt P01116, G12C); assay: In vivo target inhibition/PD, H2122 xenograft, active KRas; conditions: NCI-H2122, mouse; for inhibition at 10 mg/kg: 10 mg/kg single dose; for inhibition at 30 mg/kg: 30 mg/kg single dose
T1 construct: from tissue; host or cells: H2122 xenograft tumours from nude mice
Description: To evaluate in vivo target inhibition and anti-tumor efficacy of a compound, Human lung cancer cells, H358 or H2122 are implanted into nude mice xenograft tumor models. Either H358 or H2122 cells (10×10^6 in a 1:1 Matrigel® mix, 0.2 mL total volume) are implanted by subcutaneous injection in hind leg of nude female mice (Harlan Laboratories). A total of 5 mice each group are used for efficacy study, and a total of 3-4 mice each group are used for target engagement and PD study. Treatment is initiated with oral administration (gavage) of a test compound or vehicle (20% Captisol®, 25 mM phosphate, pH 2.0 in 0.2 mL volume when the tumor size reaches approximately […]. Tumor growth and body weight are monitored over time to evaluate efficacy and signs of toxicity. Bidimensional measurements of tumors are performed twice a week and tumor volumes are calculated based on mid-axis length and mid-axis width. Tumor volume data are transformed to a log scale to equalize variance across time and treatment groups. The log volume data are analyzed with a two-way repeated measures analysis of variance by time and treatment using the mixed procedures in SAS software (version 8.2). The correlation model for the repeated measures is spatial power. Treated groups are compared to the control group at each time point. The mixed procedure is also used separately for each treatment group to calculate adjusted means and standard errors at each time point. Both analyses account for the autocorrelation within each animal. The adjusted means and standard errors are plotted for each treatment group versus time.
For in vivo target inhibition and PD analysis, tumors are ground by mortar and pestle on dry ice and tumor fragments are added to 800 μL of lysis buffer containing 1% Triton X100, 25 mM Tris pH 7.5, 150 mM NaCl, 1 mM EDTA, and 1 mM EGTA with Halt protease and phosphatase inhibitor cocktail (Thermo Scientific, cat. no. 1861281) in lysing matrix D tubes (MP Biomedical®, cat. no. 6913-500) with one additional large bead (MP Biomedical® ¼″ ceramic sphere bead cat. no. 6540-412) per tube. Tumor fragments are homogenized in a Thermo Bio101® fast prep (FP120) at setting 4 for […] while cold for a total of 2 times. Lysates are spun at 14,000 rpm for 10 min at 4° C. to clarify. Protein estimation is done on the lysate supernatant using a BioRad Dc® protein assay and lysates are diluted in complete lysis/binding buffer from the Ras GTPase Chemi ELISA Kit® (Active Motif, cat. no. 52097). The active KRas ELISA was performed as follows: Glutathione-coated ELISA wells were incubated with diluted RAF1-GST in complete lysis/binding buffer for 1 hr at 4° C. with gentle agitation. Wells are washed 3 times with wash buffer and 100 μg of lysates are added to each well and incubated at RT for 1 hr with mild agitation. The wells are washed an additional 3 times, then primary antibody, diluted in antibody binding buffer, is added to each well. The plates are incubated for 1 hr. The wells are washed 3 more times before adding HRP-conjugated secondary antibody, diluted in antibody binding buffer, to each well. The plates are incubated at RT for 1 hr. ELISA wells are washed 4 times, chemiluminescent reagents is added and then luminescence is read. For pERK Meso Scale Discovery ELISA, 25 μg of protein containing 0.1% SDS is used; for pMEK Meso Scale Discovery ELISA, 50 μg of protein without SDS is used. Meso Scale Discovery Whole Cell Lysate Kits for pERK and pMEK are provided by Meso Scale Discovery.
After a single dose, the tumor samples are harvested at different time points. The tumor lysates are prepared as described above. The inhibition of pERK, pMEK, and active KRas is measured as described above.

H1373 xenograft = assay: Anti-tumor growth activity, H1373 lung xenograft; format: in vivo; conditions: 28 Day, negative = regression
[2] = read-out: IC50 (μM) in 2 D cell proliferation
[3] = read-out: IC50 (μM) in 3 D spheroid cell proliferation
[4] = 2 hr, read-out: % Inhibition Active KRas
[5] = 4 hr, read-out: % Inhibition Active KRas
[6] = 8 hr, read-out: % Inhibition Active KRas
[7] = 12 hr, read-out: % Inhibition Active KRas
[8] = 24 hr, read-out: % Inhibition Active KRas

T1 sequence (P01116 1-188 isoform P01116-2 G12C): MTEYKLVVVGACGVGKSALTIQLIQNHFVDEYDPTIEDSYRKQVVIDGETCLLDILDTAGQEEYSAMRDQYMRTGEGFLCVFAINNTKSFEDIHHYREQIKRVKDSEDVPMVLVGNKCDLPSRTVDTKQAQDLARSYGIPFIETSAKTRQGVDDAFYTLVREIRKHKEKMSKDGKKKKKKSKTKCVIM

## C=CC(=O)N1CCN(c2ncnc3c(F)c(-c4ccc(F)c5sc(N)nc45)c(Cl)cc23)CC1 [Example 1, 1-{4-[7-(2-Amino-7-fluoro-1,3-benzothiazol-4-yl)-6-chloro-8-fluoroquinazolin-4-yl]piperazin-1-yl}prop-2-en-1-one]
H23; [2]
  IC50: 0.08 µM
H23; [3]
  IC50: 0.031 µM
H1373; [2]
  IC50: 0.209 µM
H1373; [3]
  IC50: 0.02 µM
H460; [2]
  IC50: 11.6 µM
H460; [3]
  IC50: 6.07 µM
[1]; [4]
  inhibition at 10 mg/kg: 25.8%
  inhibition at 30 mg/kg: 57.5%
[1]; [5]
  inhibition at 10 mg/kg: 32.3%
  inhibition at 30 mg/kg: 78.8%
[1]; [6]
  inhibition at 10 mg/kg: 34.7%
  inhibition at 30 mg/kg: 67%
[1]; [7]
  inhibition at 10 mg/kg: 37.1%
  inhibition at 30 mg/kg: 46.5%
[1]; [8]
  inhibition at 10 mg/kg: 16.7%
  inhibition at 30 mg/kg: 26.1%
[1]; from 2-12 hr, read-out: active KRas inhibition
  inhibition at 10 mg/kg: 26 to 37%
[1]; from 2-[…], read-out: active KRas inhibition
  inhibition at 30 mg/kg: 26 to 79%
[1]; 100 mg/kg single dose, 4 hr
  inhibition at 100 mg/kg: 90.6%
H1373 xenograft; 15 mg/kg BID
  Tumor Growth Inhibition (%) or Regression (−%): −60%
H1373 xenograft; 30 mg/kg BID
  Tumor Growth Inhibition (%) or Regression (−%): −71.6%
H1373 xenograft; 30 mg/kg QD
  Tumor Growth Inhibition (%) or Regression (−%): −52.4%
